Counter-ions that a name gives are not always drawn. Like-named read-outs stand apart in the source and are kept apart here.
Experiments:
[1] = target: T1, transglutaminase 2 (TGase 2) (Homo sapiens, UniProt P21980); assay: TGase 2 transpeptidase fluorescence assay: incorporation of KXD into N,N-dimethylated-casein (Std and FPC formats); type: biochemical; details: standard format (Std): reactions terminated after 60 min, FI recorded, four-parameter fit
T1 sequence (P21980 1-687): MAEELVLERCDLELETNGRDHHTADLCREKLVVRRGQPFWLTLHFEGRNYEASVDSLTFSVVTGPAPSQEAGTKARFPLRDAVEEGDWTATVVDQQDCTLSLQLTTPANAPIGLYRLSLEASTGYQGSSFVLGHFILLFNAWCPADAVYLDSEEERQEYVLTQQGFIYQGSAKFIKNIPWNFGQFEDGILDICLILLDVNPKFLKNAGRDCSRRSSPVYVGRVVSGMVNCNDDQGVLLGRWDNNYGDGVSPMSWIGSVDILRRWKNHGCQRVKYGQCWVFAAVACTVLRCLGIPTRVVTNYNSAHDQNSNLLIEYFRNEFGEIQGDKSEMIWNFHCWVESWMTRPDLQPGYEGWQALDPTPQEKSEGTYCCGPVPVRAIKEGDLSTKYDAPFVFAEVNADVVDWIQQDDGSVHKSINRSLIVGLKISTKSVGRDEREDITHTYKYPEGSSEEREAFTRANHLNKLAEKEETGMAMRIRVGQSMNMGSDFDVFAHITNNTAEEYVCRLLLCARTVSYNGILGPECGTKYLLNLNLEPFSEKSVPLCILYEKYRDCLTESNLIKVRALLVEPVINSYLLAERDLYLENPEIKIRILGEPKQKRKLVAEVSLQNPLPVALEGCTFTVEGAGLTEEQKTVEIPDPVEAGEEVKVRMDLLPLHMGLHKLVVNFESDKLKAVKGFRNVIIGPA

[2] = target: T1, transglutaminase 2 (TGase 2); assay: as above; type: biochemical; details: for TGase 2 inhibitory activity, SAR comment in words (relative to parent compound): qualitative comparison
Description: Transpeptidase activity was monitored as the increase in fluorescence intensity (FI) that accompanies incorporation of the dansylated Lys derivative, α-N-Boc-Lys-CH2-CH2-dansyl (KXD), into the protein substrate, N,N-dimethylated-casein (NMC).
Therefore, a method was used in which full progress curves (FPC) were recorded for the TGase-catalyzed reaction of KXD with NMC in the presence of inhibitor (Table 1-4). Reactions were initiated by enzyme addition to a solution of substrate and inhibitor. […] From such progress curves, IC50 values were calculated using the following equation: IC50=[I]/{(vc/vss)−1}. Progress curves recorded at several inhibitor concentrations were used to determine FPC IC50 values (Table 1-4).

[3] = full progress curves (FPC), IC50=[I]/{(vc/vss)−1}, from steady-state velocity, read-out: IC50 (μM, FPC)
[4] = summary of FPC values, read-out: FPC IC50 values

How did the IC50 [1] turn out when NNC(=O)CSc1nc2scc(-c3ccccc3O)c2c(=O)n1-c1cccc(F)c1 [986-34, [3-(3-Fluorophenyl)-5-(2-hydroxyphenyl)-4-oxo-3,4-dihydrothieno[2,3-d]pyrimidin-2-ylsulfanyl]acetic acid hydrazide] was run?
The IC50 was 1.4 µM.

How did the IC50 [2, 3] turn out when COc1ccc(-c2csc3nc(SCC(=O)NN)n(-c4cccc(F)c4)c(=O)c23)cc1 [986-33, [3-(3-Fluorophenyl)-5-(4-methoxyphenyl)-4-oxo-3,4-dihydrothieno[2,3-d]pyrimidin-2-ylsulfanyl]acetic acid hydrazide] was run?
Its IC50 is 0.28 µM.

CC(C)c1sc2nc(SCC(=O)NN)n(-c3cccc(F)c3)c(=O)c2c1-c1ccccc1F [986-41, [3-(3-Fluorophenyl)-5-(2-fluorophenyl)-6-isopropyl-4-oxo-3,4-dihydrothieno[2,3-d]pyrimidin-2-ylsulfanyl]acetic acid hydrazide] was tested. Which IC50 [2, 3] did it give?
The IC50 was 0.9 µM.

And the “TGase 2 inhibitory activity, SAR comment in words (relative to parent compound)” value [2]?
The value was “detrimental”.

With CC(C)(C)OC(=O)N1CCc2c(sc3nc(SCC(=O)NN)n(-c4cccc(F)c4)c(=O)c23)C1 [986-46, 3-(3-Fluorophenyl)-2-hydrazinocarbonylmethylsulfanyl-4-oxo-3,5,6,8-tetrahydro-4H-9-thia-1,3,7-triazafluorene-7-carboxylic acid tert-butyl ester] as the compound, how does the IC50 [2, 3] read?
The IC50 was 1.1 µM.

Which results are given for COc1ccccc1-c1csc2nc(SCC(=O)NN)n(-c3cccc(F)c3)c(=O)c12 [986-31, [3-(3-Fluorophenyl)-5-(2-methoxyphenyl)-4-oxo-3,4-dihydrothieno[2,3-d]pyrimidin-2-ylsulfanyl]acetic acid hydrazide]?
IC50 [2, 3]: 0.14 µM; IC50 [2, 4]: < 0.16 µM

For NNC(=O)CSc1nc2scc(-c3ccccc3)c2c(=O)n1-c1cccc(Cl)c1 [986-24, [3-(3-Chlorophenyl)-4-oxo-5-phenyl-3,4-dihydrothieno[2,3-d]pyrimidin-2-ylsulfanyl]acetic acid hydrazide], which IC50 [1] is on record?
Its IC50 is 1.5 µM.

How did the IC50 [1] turn out when CN(CC(=O)NN)c1nc2scc(-c3ccccc3)c2c(=O)n1-c1ccccc1 [986-06, [Methyl-(4-oxo-3,5-diphenyl-3,4-dihydrothieno[2,3-d]pyrimidin-2-yl) -amino]acetic acid hydrazide] was run?
The IC50 was greater than 20 µM.

Which IC50 [1] does the source give for CN(N)C(=O)CSc1nc2scc(-c3ccc(F)cc3)c2c(=O)n1-c1ccc(F)cc1 [986-50, [3,5-Bis-(4-fluorophenyl)-4-oxo-3,4-dihydrothieno[2,3-d]pyrimidin-2-ylsulfanyl]acetic acid N-methylhydrazide] here?
The IC50 was greater than 20 µM.

How did the IC50 [2, 3] turn out when Cc1sc2nc(SCC(=O)NN)n(-c3cccc(F)c3)c(=O)c2c1-c1ccccc1F [986-40, [3-(3-Fluorophenyl)-5-(2-fluorophenyl)-6-methyl-4-oxo-3,4-dihydrothieno[2,3-d]pyrimidin-2-ylsulfanyl]acetic acid hydrazide] was run?
Its IC50 is 0.15 µM.

And the IC50 [2, 4]?
Its IC50 is less than 0.16 µM.

With NNC(=O)CSc1nc2sc3c(c2c(=O)n1-c1cccc(F)c1)CCNC3 [986-47, [3-(3-Fluorophenyl)-4-oxo-3,4,5,6,7,8-hexahydro-9-thia-1,3,7-triazafluoren-2-ylsulfanyl]acetic acid hydrazide] as the compound, how does the IC50 [2, 3] read?
Its IC50 is 7.1 µM.

With CN1CCc2c(sc3nc(SCC(=O)NN)n(-c4cccc(F)c4)c(=O)c23)C1 [986-48, [3-(3-Fluorophenyl)-7-methyl-4-oxo-3,4,5,6,7,8-hexahydro-9-thia-1,3,7-triazafluoren-2-ylsulfanyl]acetic acid hydrazide] as the compound, how does the IC50 [2, 3] read?
Its IC50 is 0.53 µM.

With NNC(=O)CSc1nc2ccc(-c3ccccc3)cc2c(=O)n1-c1cccc(F)c1 [986-04, [3-(3-Fluorophenyl)-4-oxo-6-phenyl-3,4-dihydroquinazolin-2-ylsulfanyl]acetic acid hydrazide] as the compound, how does the IC50 [2, 3] read?
Its IC50 is 1.5 µM.

And the “TGase 2 inhibitory activity, SAR comment in words (relative to parent compound)” value [2]?
The value was “Activity was partly restored”.

Which IC50 [1] does the source give for NNC(=O)CSc1nc2scc(-c3ccccc3)c2c(=O)n1-c1ccccc1Cl [986-23, [3-(2-Chlorophenyl)-4-oxo-5-phenyl-3,4-dihydrothieno[2,3-d]pyrimidin-2-ylsulfanyl]acetic acid hydrazide] here?
The IC50 was 1.8 µM.

For COc1ccccc1-n1c(SCC(=O)NN)nc2scc(-c3ccccc3)c2c1=O [986-20, [3-(2-Methoxyphenyl)-4-oxo-5-phenyl-3,4-dihydrothieno[2,3-d]pyrimidin-2-ylsulfanyl]acetic acid hydrazide], which IC50 [1] is on record?
Its IC50 is 2 µM.

For NNC(=O)CNc1nc2scc(-c3ccccc3)c2c(=O)n1-c1ccccc1 [986-05, (4-Oxo-3,5-diphenyl-3,4-dihydrothieno[2,3-d]pyrimidin-2-ylamino)acetic acid hydrazide], which IC50 [2, 3] is on record?
The IC50 was 3.7 µM.

And the “TGase 2 inhibitory activity, SAR comment in words (relative to parent compound)” value [2]?
The value was “decreased activity”.

Which IC50 [1] does the source give for O=C(O)CSc1nc2scc(-c3ccc(F)cc3)c2c(=O)n1-c1ccc(F)cc1 [986-54, [3,5-Bis-(4-fluorophenyl)-4-oxo-3,4-dihydrothieno[2,3-d]pyrimidin-2-ylsulfanyl]acetic acid] here?
Its IC50 is greater than 20 µM.

With NNC(=O)CSc1nc2scc(-c3ccccc3)c2c(=O)n1-c1ccc(Cl)cc1 [986-25, [3-(4-Chlorophenyl)-4-oxo-5-phenyl-3,4-dihydrothieno[2,3-d]pyrimidin-2-ylsulfanyl]acetic acid hydrazide] as the compound, how does the IC50 [1] read?
The IC50 was 1.8 µM.

Which IC50 [1] does the source give for NNC(=O)CSc1nc2sc3c(c2c(=O)n1-c1cccc(F)c1)C(Cc1ccccc1)CCC3 (stereo not shown) [986-45, [5-Benzyl-3-(3-fluorophenyl)-4-oxo-3,4,5,6,7,8-hexahydrobenzo[4,5]thieno[2,3-d]pyrimidin-2-ylsulfanyl]acetic acid hydrazide] here?
The IC50 was 2.3 µM.

For O=C(CSc1nc2scc(-c3ccc(F)cc3)c2c(=O)n1-c1ccc(F)cc1)NO [986-55, 2-[3,5-Bis-(4-fluorophenyl)-4-oxo-3,4-dihydrothieno[2,3-d]pyrimidin-2-ylsulfanyl]-N-hydroxyacetamide], which IC50 [1] is on record?
The IC50 was greater than 20 µM.

Which IC50 [2, 3] does the source give for CC(C)c1csc2nc(SCC(=O)NN)n(-c3cccc(F)c3)c(=O)c12 [986-36, [3-(3-Fluorophenyl)-5-isopropyl-4-oxo-3,4-dihydrothieno[2,3-d]pyrimidin-2-ylsulfanyl]acetic acid hydrazide] here?
Its IC50 is 0.23 µM.

And the “TGase 2 inhibitory activity, SAR comment in words (relative to parent compound)” value [2]?
Its value is “no loss in activity”.

NCC(=O)CSc1nc2scc(-c3ccccc3)c2c(=O)n1-c1cccc(F)c1 [986-56, 2-(3-Amino-2-oxo-propylsulfanyl)-3-(3-fluorophenyl)-5-phenyl-3H-thieno[2,3-d]pyrimidin-4-one hydrochloride] was tested. Which IC50 [1] did it give?
The IC50 was 5.3 µM.

For NNC(=O)CSc1nc2scc(-c3ccccc3)c2c(=O)n1Cc1ccccc1 [986-14, (3-Benzyl-4-oxo-5-phenyl-3,4-dihydrothieno[2,3-d]pyrimidin-2-ylsulfanyl)acetic acid hydrazide], which IC50 [1] is on record?
The IC50 was 2.3 µM.

Which IC50 [1] does the source give for CNC(=O)CSc1nc2scc(-c3ccc(F)cc3)c2c(=O)n1-c1ccc(F)cc1 [986-52, 2-[3,5-Bis-(4-fluorophenyl)-4-oxo-3,4-dihydrothieno[2,3-d]pyrimidin-2-ylsulfanyl]-N-methylacetamide] here?
Its IC50 is greater than 20 µM.

For NNC(=O)CSc1nc2scc(-c3cccc(F)c3)c2c(=O)n1-c1cccc(F)c1 [986-38, [3,5-Bis-(3-fluorophenyl)-4-oxo-3,4-dihydrothieno[2,3-d]pyrimidin-2-ylsulfanyl]acetic acid hydrazide], which IC50 [2, 3] is on record?
Its IC50 is 0.29 µM.

For NNC(=O)CSc1nc2sc3c(c2c(=O)n1-c1cccc(F)c1)CCCC3 [986-42, [3-(3-Fluorophenyl)-4-oxo-3,4,5,6,7,8-hexahydrobenzo[4,5]thieno[2,3-d]pyrimidin-2-ylsulfanyl]acetic acid hydrazide], which IC50 [2, 3] is on record?
The IC50 was 0.45 µM.

What does the source list for NNC(=O)CSc1nc2scc(-c3ccccc3F)c2c(=O)n1-c1cccc(F)c1 [986-37, [3-(3-Fluorophenyl)-5-(2-fluorophenyl)-4-oxo-3,4-dihydrothieno[2,3-d]pyrimidin-2-ylsulfanyl]acetic acid hydrazide]?
IC50 [2, 3]: 0.14 µM; IC50 [2, 4]: < 0.16 µM

For CC1CCCc2sc3nc(SCC(=O)NN)n(-c4cccc(F)c4)c(=O)c3c21 (stereo not shown) [986-43, [3-(3-Fluorophenyl)-5-methyl-4-oxo-3,4,5,6,7,8-hexahydrobenzo[4,5]thieno[2,3-d]pyrimidin-2-ylsulfanyl]acetic acid hydrazide], which IC50 [2, 3] is on record?
The IC50 was 0.2 µM.

For NNC(=O)CSc1nc2sc(Cl)c(-c3ccccc3F)c2c(=O)n1-c1cccc(F)c1 [986-39, [6-Chloro-3-(3-fluorophenyl)-5-(2-fluorophenyl)-4-oxo-3,4-dihydrothieno[2,3-d]pyrimidin-2-ylsulfanyl]acetic acid hydrazide], which IC50 [2, 3] is on record?
The IC50 was 0.13 µM.

And the “TGase 2 inhibitory activity, SAR comment in words (relative to parent compound)” value [2]?
The value was “increased activity”.

What about the IC50 [2, 4] of the same compound?
The IC50 was less than 0.16 µM.
